Here are results for two molecules from paper PMC9511493, “2-(Fluoromethoxy)-4′-(S-methanesulfonimidoyl)-1,1′-biphenyl (UCM-1306), an Orally Bioavailable Positive Allosteric Modulator of the Human Dopamine D1 Receptor for Parkinson’s Disease” (Journal of Medicinal Chemistry, 2022).

Where “and” joins values, the source holds several entries; their conditions need not be identical. Identical values can stand only once. A value given as a limit tells only on which side of the number the result lay.

Common to all, as to format: in vitro ADME
Data set [1] addresses T1, human serum albumin (HSA) (Homo sapiens, UniProt P02768).
T1 construct: purchased Sovicell TMP-0210-2096
In words: HSA binding assay (TRANSIL XL). The conditions noted are these: for HSA binding (%): at a concentration of 5 μM. The method, then: HSA binding assay. The assessment of compounds binding to HSA was performed by incubating a fixed concentration of the compound with different concentrations of immobilized HSA, using the TRANSILXL HSA Binding Kit (TMP-0210- 2096, Sovicell). An 8-well unit of the TRANSIL assay plate was used for each compound : six wells contain increasing concentrations of HSA immobilized on silica beads suspended in PBS at pH 7.4, and two wells contain buffer only and serve as references to account for nonspecific binding. The TRANSIL assay plate was thawed for 3 h at rt and centrifuged at 750g for 5 s. Then, 15 μ L of an 80 μ M stock solution of the compound in PBS (for a final concentration of 5 μ M) were added to each well of the 8-well unit, and the plate was incubated on a plate shaker at 1000 rpm for 12 min at rt. After this time, the plate was centrifuged at 750gfor 10 min, and 50 μL of the supernatants were transferred for analytical quantification by HPLC-MS using selected ion monitoring (SIM). The binding percentage was calculated from the remaining free compound concentration in the supernatant of each well, using the spreadsheet and algorithms supplied with the kit.
Stability in mouse serum. Stability for selected compounds and reference compound enalapril was assayed by adding 625 μL of a 250 μM solution of test compound in PBS pH 7.4 to 1.875 mL of mouse serum (Europa Bioproducts, EQSM-0100) pre-warmed a t 37 °C. Next, solutions were incubated at 37 °C for 4 h, taking aliquots of 250 μL at t = 0, 1, 2, 3, and 4 h. Each aliquot was quenched in 375 μL of cold ACN, vortexed, incubated for 10 min in ice and centrifuged at 39000g for 10 min. Supernatants were then analyzed by HPLC-MS using SIM mode, and quantification was estimated by using the peak area integration normalized with an internal standard.
Stability assay in mouse liver homogenate. Stability of test compounds and reference compound propranolol was determined by incubation in liver homogenates following previously reported procedure. […]

A further data set has as its target T2, CYP3A4 (Homo sapiens, UniProt P08684).
T2 construct: host or cells: insect cell microsomes
In words: cytochrome inhibition, fluorescence assay, CYP3A4. The method, then:
(§1) Cytochrome inhibition. The objective of this study was to screen the potential of test […]
(§2) performed using recombinant isoforms CYP1A2, CYP2C9, CYP2C19, CYP2D6, and CYP3A4, and probe substrates with fluorescent detection.
(§3) Assays were conducted in a 200 µL volume in 96-well microtiter plates (COSTAR 3915).
(§4) Addition of cofactor-buffer mixture (KH2PO4 buffer, 1.3 mM NADP, 3.3 mM MgCl2, 3.3 mM glucose -6- phosphate, and 0.4 U/mL glucose -6- phosphate dehydrogenase), supersomes control, standard inhibitors (furafyline, tranylzypromine, ketoconazole, sulfaphenazole, and quinidine from Sigma Aldrich) and test compound to the plate was carried out by a liquid handling station (Zephyr Caliper). The plate was then pre-incubated at 37 °C for 5 min, and the reaction was initiated by the addition of the pr e - warmed enzyme/substrate (E/S) mix. […]
(§5) Fluorescence per well was measured using a fluorescence plate reader (Tecan Infinite M1000 pro) and percentage of inhibition was calculated. hERG ion channel inhibition. […]

The next data set deals with T3, CYP1A2 (Homo sapiens, UniProt P05177).
T3 construct: host or cells: insect cell microsomes
T3 sequence (P05177 1-516): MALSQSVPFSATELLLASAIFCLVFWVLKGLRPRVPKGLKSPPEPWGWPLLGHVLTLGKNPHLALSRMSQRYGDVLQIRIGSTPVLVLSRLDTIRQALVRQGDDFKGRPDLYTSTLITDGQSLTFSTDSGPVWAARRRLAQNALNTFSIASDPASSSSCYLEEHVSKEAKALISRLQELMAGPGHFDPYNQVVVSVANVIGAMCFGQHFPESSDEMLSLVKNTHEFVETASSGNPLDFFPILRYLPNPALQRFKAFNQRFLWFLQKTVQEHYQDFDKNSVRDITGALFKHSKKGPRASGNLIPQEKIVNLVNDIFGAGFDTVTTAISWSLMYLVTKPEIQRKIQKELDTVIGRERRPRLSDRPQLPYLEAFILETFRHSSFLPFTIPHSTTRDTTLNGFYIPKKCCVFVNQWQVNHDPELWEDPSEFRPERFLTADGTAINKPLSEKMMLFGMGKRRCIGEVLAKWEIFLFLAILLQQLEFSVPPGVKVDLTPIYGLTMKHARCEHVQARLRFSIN
The experiment in a line: cytochrome inhibition, fluorescence assay, CYP1A2. The method, then:
as §1, §2, §3, §4, §5

The next data set has as its target T4, CYP2C19 (Homo sapiens, UniProt P33261).
T4 construct: host or cells: insect cell microsomes
In words: cytochrome inhibition, fluorescence assay, CYP2C19. The method, then: as §1, §2, §3, §4, §5

The mark [2] stands for this setting: percentage of inhibition at 10 μM.

T1 sequence (P02768 25-609): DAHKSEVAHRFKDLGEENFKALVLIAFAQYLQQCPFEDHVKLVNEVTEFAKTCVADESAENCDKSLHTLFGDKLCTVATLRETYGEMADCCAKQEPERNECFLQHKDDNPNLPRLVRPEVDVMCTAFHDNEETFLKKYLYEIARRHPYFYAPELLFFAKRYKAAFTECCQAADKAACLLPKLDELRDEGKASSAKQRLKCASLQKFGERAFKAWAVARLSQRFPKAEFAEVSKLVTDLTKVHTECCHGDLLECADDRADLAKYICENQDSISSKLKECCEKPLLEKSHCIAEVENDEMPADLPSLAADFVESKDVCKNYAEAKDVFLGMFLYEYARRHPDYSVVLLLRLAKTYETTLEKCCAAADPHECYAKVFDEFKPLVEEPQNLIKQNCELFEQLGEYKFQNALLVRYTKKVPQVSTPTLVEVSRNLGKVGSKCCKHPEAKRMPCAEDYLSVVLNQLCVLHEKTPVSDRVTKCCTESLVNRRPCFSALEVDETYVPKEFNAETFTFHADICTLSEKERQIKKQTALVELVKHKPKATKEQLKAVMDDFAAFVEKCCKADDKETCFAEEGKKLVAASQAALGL
T2 sequence (P08684 whole entry): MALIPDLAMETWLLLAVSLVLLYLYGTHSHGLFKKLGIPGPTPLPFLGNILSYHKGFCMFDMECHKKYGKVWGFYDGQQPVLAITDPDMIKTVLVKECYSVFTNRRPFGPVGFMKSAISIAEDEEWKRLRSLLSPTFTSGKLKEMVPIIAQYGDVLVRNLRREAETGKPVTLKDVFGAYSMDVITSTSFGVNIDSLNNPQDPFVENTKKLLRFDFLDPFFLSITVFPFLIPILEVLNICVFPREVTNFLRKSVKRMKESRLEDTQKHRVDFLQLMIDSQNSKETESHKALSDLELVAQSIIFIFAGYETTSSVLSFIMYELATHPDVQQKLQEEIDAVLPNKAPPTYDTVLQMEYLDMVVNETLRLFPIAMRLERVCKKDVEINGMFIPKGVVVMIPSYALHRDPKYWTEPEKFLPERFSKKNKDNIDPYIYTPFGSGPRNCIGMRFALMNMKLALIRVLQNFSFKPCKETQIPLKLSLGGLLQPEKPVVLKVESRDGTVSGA
T4 sequence (P33261 whole entry): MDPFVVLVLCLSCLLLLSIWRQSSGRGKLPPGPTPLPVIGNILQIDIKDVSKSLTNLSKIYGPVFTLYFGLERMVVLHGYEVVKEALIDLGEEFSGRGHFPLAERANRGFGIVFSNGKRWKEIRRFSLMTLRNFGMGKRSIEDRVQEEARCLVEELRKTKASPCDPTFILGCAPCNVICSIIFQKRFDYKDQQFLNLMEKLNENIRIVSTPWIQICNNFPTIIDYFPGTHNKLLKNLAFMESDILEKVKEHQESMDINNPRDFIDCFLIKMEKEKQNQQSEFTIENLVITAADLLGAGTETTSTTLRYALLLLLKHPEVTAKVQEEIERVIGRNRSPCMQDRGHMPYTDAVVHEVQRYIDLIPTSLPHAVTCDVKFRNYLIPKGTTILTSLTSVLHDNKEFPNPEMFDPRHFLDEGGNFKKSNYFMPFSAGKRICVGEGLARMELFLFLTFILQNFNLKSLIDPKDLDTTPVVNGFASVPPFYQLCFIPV

For orientation: IC50 means the concentration that inhibits the measured activity by half. Turning to `O=Cc1ccc(-c2ccccc2OCF)cc1` [Compound 3, 2′-(Fluoromethoxy)[1,1′-biphenyl]-4-carbaldehyde], in data set [1], the “HSA binding (%)” value was over 99%. The half-maximal inhibitory concentration (IC50) at CYP3A4 (read-out: CYP34A (IC50)) came to 2.82 ± 0.32 µM; on CYP1A2, 0.83 ± 0.17 µM; against CYP2C19, 6.53 ± 1.12 µM.
What is called Kd is a measure of binding affinity in units of concentration. On to `CS(=N)(=O)c1ccc(-c2ccccc2OCF)cc1` (stereo not drawn) [Compound 26, 2-(Fluoromethoxy)-4′-(S-methanesulfonimidoyl)-1,1′-biphenyl], for which the “HSA binding (%)” value in data set [1] came to 79%. The Kd in data set [1] (read-out: HSA dissociation constant Kd) came to 156 µM. Moreover, at CYP3A4 (setting [2]), the “CYP34A (%)” value was 9% and 9 ± 1%. The “CYP1A2 (%)” value on CYP1A2 (setting [2]) amounted to 49 ± 2%. Further, the “CYP2C19 (%)” value on CYP2C19 (setting [2]) is listed as 37 ± 2%.
